Tests used:
Rattus norvegicus [1] = assay: In vivo percentage of prodrug (Compound) reconversion to PD-154075 from (male Wistar rat) plasma after intravenous administration of the 5 mg/ml compound; type: functional
[2] = Solubility in water was determined; type: physicochemical
Rattus norvegicus [3] = assay: In vivo percentage of prodrug (Compound) reconversion to PD-154075 from (male Wistar rat) plasma after intravenous administration of the 4.6 mg/ml compound; type: functional
Rattus norvegicus [4] = assay: In vivo percentage of prodrug (Compound) reconversion to PD-154075 from (male Wistar rat) plasma after intravenous administration of the 5.7 mg/ml compound; type: functional
Rattus norvegicus [5] = assay: In vivo percentage of prodrug (Compound) reconversion to PD-154075 from (male Wistar rat) plasma after intravenous administration of the 5.3 mg/mL compound; type: functional

SMILES | Prodrug reconversion (Rattus norvegicus [1]) [%] | solubility [2] [mg/mL] | Prodrug reconversion (Rattus norvegicus [3]) [%] | Prodrug reconversion (Rattus norvegicus [4]) [%] | Prodrug reconversion (Rattus norvegicus [5]) [%]
Cc1cc(C)c(C(C)(C)CC(=O)n2cc(C[C@@](C)(NC(=O)OCc3cc4ccccc4o3)C(=O)N[C@H](C)c3ccccc3)c3ccccc32)c(OP(=O)([O-])[O-])c1.[Na+].[Na+] | 9.35 | 31 |  |  | 
C[C@@H](NC(=O)[C@@](C)(Cc1cn(C(=O)c2ccccc2COP(=O)([O-])[O-])c2ccccc12)NC(=O)OCc1cc2ccccc2o1)c1ccccc1.[Na+].[Na+] |  | 55 | 19.9 |  | 
C[C@@H](NC(=O)[C@@](C)(Cc1cn(P(=O)([O-])[O-])c2ccccc12)NC(=O)OCc1cc2ccccc2o1)c1ccccc1.[Na+].[Na+] |  | 76 |  | 11.7 | 
C[C@@H](NC(=O)[C@@](C)(Cc1cn(C(=O)OCOC(=O)c2ccc(COP(=O)([O-])[O-])cc2)c2ccccc12)NC(=O)OCc1cc2ccccc2o1)c1ccccc1.[Na+].[Na+] |  | 58 |  |  | 59.5
CC(NC(=O)[C@@](C)(Cc1c[nH]c2ccccc12)NC(=O)OCc1cc2ccccc2o1)c1ccccc1 (single isomer, unassigned) |  | < 0.001 |  |  | 
